For the test, the system named is RPMI-8402 cells. The test can be described thus: TMT global proteomics in RPMI-8402 cells. The format is cell-based, human. The following applies: for Abundance Ratio (log2): (LLC0424) / (DMSO): RPMI-8402. How it is done: We conducted a global proteomic assay using tandem mass tags (TMT) labeled mass-spectrometry to unbiasedly quantify the protein change upon LLC0424 treatment in VCaP and RPMI-8402 cells. […] We further used SEM cell line to cross-validate the selectivity of LLC0424 for NSD2 over NSD1 and NSD3 as well as CRBN neo-substrates IKZF1, IKZF3, GSPT1, and CK-1α using immunoblotting. […] When we increased the treatment time of LLC0424 in SEM cells, we observed mild decrease of GSPT1 from 12 h (SI, Figure S3F).
RPMI-8402 cells were plated at 10 × 10^6 cells per plate on 10 cm tissue culture plates overnight before treating with DMSO (control) or 2 μM LLC0424 with 3 replicates for each treatment. After 8 h, whole cell lysates were collected using RIPA buffer (ThermoFisher Scientific) and quantified using Pierce Bovine Serum Albumin Standard Pre-Diluted Set (ThermoFisher Scientific). Cell lysates were proteolyzed and labeled with TMT 6-plex Isobaric Label Reagent (ThermoFisher Scientific) according to the protocol from the manufacturer and subjected to 8 fractions of liquid chromatography–mass spectrometry (LC-MS)/MS analysis as described.[33] We plotted the results using graphpad prism. To gain protein changes with high confidence, we screened the results of (LC-MS)/MS analysis with the criteria of peptides number >4 and unique peptides number >1. […]
Figure S3. LLC0424 was a selective NSD2 degrader. […]

Turning to `O=C1CCC(N2C(=O)c3ccc(N4CCC(NC(=O)c5ccc(NC(=O)c6ccc(CN(C(=O)c7ccc8c(c7)OCC(=O)N8)C7CC7)cc6)cc5)CC4)cc3C2=O)C(=O)N1` (stereo not drawn) [compound 10l, N-Cyclopropyl-N-(4-((4-((1-(2-(2,6-dioxopiperidin-3-yl)-1,3-dioxoisoindolin-5-yl)piperidin-4-yl)carbamoyl)phenyl)carbamoyl)benzyl)-3-oxo-3,4-dihydro-2H-benzo[b][1,4]oxazine-7-carboxamide], the “Abundance Ratio (log2): (LLC0424) / (DMSO)” value by setting is: (protein accession P35579) 0.04; (protein accession P78527) -0.02; (protein accession Q01082) 0.05; (protein accession Q13813) 0.03; (protein accession Q14204) 0.05. In addition, the “number of proteins significantly decreased in global proteomics” value (RPMI-8402 cells, 2 μM) came out at 3.
